# In PubChem BioAssay AID1963959 (Molecular Pharmacology Branch, DTP, NCI, 2024):
# System: T-47D spheroids with HUVEC/MSC, viability
# Test: Anticancer human tumor T-47D cell line growth inhibition [PI3K];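 also: spheroids exposed to agents for seven days before reading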;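 as to viability, T/C: percent of DMSO vehicle control luminescence so 100% = untreated growth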
# Conditions: for IC50: curve of first compound; for viability, T/C: stronger effect = lower value
# Procedure, shortened: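 Targeted small molecules plus PI3K inhibitors, half-log dose series from Cmax (default top 10 microM), were applied to heterotypic spheroids of cancer cells with HUVEC and MSCs. Viability indicated growth inhibition.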
smiles,measurement,setting,value
CNC(=O)c1ccc(N2C(=S)N(c3ccc(C#N)c(C(F)(F)F)c3)C(=O)C2(C)C)cc1F + CC(Nc1ncnc2nc[nH]c12)c1cc2cccc(Cl)c2c(=O)n1-c1ccccc1,IC50,second compound 0.0316 µM,> 10 µM
same,IC50,second compound 0.1 µM,> 10 µM
same,IC50,second compound 0.316 µM,> 10 µM
same,IC50,second compound 1 µM,> 10 µM
same,IC50,second compound 3.16 µM,> 10 µM
same,IC50,second compound 10 µM,> 10 µM
same,"viability, T/C","second compound 0.0316 µM, first compound 0.0316 µM",117%
same,"viability, T/C","second compound 0.0316 µM, first compound 0.1 µM",108%
same,"viability, T/C","second compound 0.0316 µM, first compound 0.316 µM",96.2%
same,"viability, T/C","second compound 0.0316 µM, first compound 1 µM",85.9%
same,"viability, T/C","second compound 0.0316 µM, first compound 3.16 µM",97.1%
same,"viability, T/C","second compound 0.0316 µM, first compound 10 µM",79.6%
same,"viability, T/C","second compound 0.1 µM, first compound 0.0316 µM",101%
same,"viability, T/C","second compound 0.1 µM, first compound 0.1 µM",85.4%
same,"viability, T/C","second compound 0.1 µM, first compound 0.316 µM",114%
same,"viability, T/C","second compound 0.1 µM, first compound 1 µM",99.9%
same,"viability, T/C","second compound 0.1 µM, first compound 3.16 µM",95.4%
same,"viability, T/C","second compound 0.1 µM, first compound 10 µM",80.2%
same,"viability, T/C","second compound 0.316 µM, first compound 0.0316 µM",89%
same,"viability, T/C","second compound 0.316 µM, first compound 0.1 µM",88%
same,"viability, T/C","second compound 0.316 µM, first compound 0.316 µM",84.2%
same,"viability, T/C","second compound 0.316 µM, first compound 1 µM",80.7%
same,"viability, T/C","second compound 0.316 µM, first compound 3.16 µM",92.3%
same,"viability, T/C","second compound 0.316 µM, first compound 10 µM",86.5%
same,"viability, T/C","second compound 1 µM, first compound 0.0316 µM",93.7%
same,"viability, T/C","second compound 1 µM, first compound 0.1 µM",87.5%
same,"viability, T/C","second compound 1 µM, first compound 0.316 µM",78.1%
same,"viability, T/C","second compound 1 µM, first compound 1 µM",86%
same,"viability, T/C","second compound 1 µM, first compound 3.16 µM",91.7%
same,"viability, T/C","second compound 1 µM, first compound 10 µM",76.9%
same,"viability, T/C","second compound 3.16 µM, first compound 0.0316 µM",88.5%
same,"viability, T/C","second compound 3.16 µM, first compound 0.1 µM",76.4%
same,"viability, T/C","second compound 3.16 µM, first compound 0.316 µM",86%
same,"viability, T/C","second compound 3.16 µM, first compound 1 µM",85.5%
same,"viability, T/C","second compound 3.16 µM, first compound 3.16 µM",95.2%
same,"viability, T/C","second compound 3.16 µM, first compound 10 µM",94%
same,"viability, T/C","second compound 10 µM, first compound 0.0316 µM",96.8%
same,"viability, T/C","second compound 10 µM, first compound 0.1 µM",90.9%
same,"viability, T/C","second compound 10 µM, first compound 0.316 µM",84.3%
same,"viability, T/C","second compound 10 µM, first compound 1 µM",84.1%
same,"viability, T/C","second compound 10 µM, first compound 3.16 µM",98.3%
same,"viability, T/C","second compound 10 µM, first compound 10 µM",88.7%
Cn1cnc2c(F)c(Nc3ccc(Br)cc3Cl)c(C(=O)NOCCO)cc21 + CC(Nc1ncnc2nc[nH]c12)c1cc2cccc(Cl)c2c(=O)n1-c1ccccc1,IC50,second compound 0.0316 µM,> 3 µM
same,IC50,second compound 0.1 µM,> 3 µM
same,IC50,second compound 0.316 µM,> 3 µM
same,IC50,second compound 1 µM,> 3 µM
same,IC50,second compound 3.16 µM,> 3 µM
same,IC50,second compound 10 µM,> 3 µM
same,"viability, T/C","second compound 0.0316 µM, first compound 0.00949 µM",104%
same,"viability, T/C","second compound 0.0316 µM, first compound 0.03 µM",93.4%
same,"viability, T/C","second compound 0.0316 µM, first compound 0.0949 µM",100%
same,"viability, T/C","second compound 0.0316 µM, first compound 0.3 µM",81%
same,"viability, T/C","second compound 0.0316 µM, first compound 0.949 µM",84.2%
same,"viability, T/C","second compound 0.0316 µM, first compound 3 µM",77.1%
same,"viability, T/C","second compound 0.1 µM, first compound 0.00949 µM",94.6%
same,"viability, T/C","second compound 0.1 µM, first compound 0.03 µM",86%
same,"viability, T/C","second compound 0.1 µM, first compound 0.0949 µM",87.8%
same,"viability, T/C","second compound 0.1 µM, first compound 0.3 µM",83.8%
same,"viability, T/C","second compound 0.1 µM, first compound 0.949 µM",93.2%
same,"viability, T/C","second compound 0.1 µM, first compound 3 µM",102%
same,"viability, T/C","second compound 0.316 µM, first compound 0.00949 µM",73.4%
same,"viability, T/C","second compound 0.316 µM, first compound 0.03 µM",83.2%
same,"viability, T/C","second compound 0.316 µM, first compound 0.0949 µM",79.7%
same,"viability, T/C","second compound 0.316 µM, first compound 0.3 µM",83.9%
same,"viability, T/C","second compound 0.316 µM, first compound 0.949 µM",82%
same,"viability, T/C","second compound 0.316 µM, first compound 3 µM",75.2%
same,"viability, T/C","second compound 1 µM, first compound 0.00949 µM",96.9%
same,"viability, T/C","second compound 1 µM, first compound 0.03 µM",104%
same,"viability, T/C","second compound 1 µM, first compound 0.0949 µM",86.1%
same,"viability, T/C","second compound 1 µM, first compound 0.3 µM",94.8%
same,"viability, T/C","second compound 1 µM, first compound 0.949 µM",75%
same,"viability, T/C","second compound 1 µM, first compound 3 µM",79.3%
same,"viability, T/C","second compound 3.16 µM, first compound 0.00949 µM",79.3%
same,"viability, T/C","second compound 3.16 µM, first compound 0.03 µM",94.9%
same,"viability, T/C","second compound 3.16 µM, first compound 0.0949 µM",85.2%
same,"viability, T/C","second compound 3.16 µM, first compound 0.3 µM",95.5%
same,"viability, T/C","second compound 3.16 µM, first compound 0.949 µM",80.2%
same,"viability, T/C","second compound 3.16 µM, first compound 3 µM",82.5%
same,"viability, T/C","second compound 10 µM, first compound 0.00949 µM",78.3%
same,"viability, T/C","second compound 10 µM, first compound 0.03 µM",82.2%
same,"viability, T/C","second compound 10 µM, first compound 0.0949 µM",71.3%
same,"viability, T/C","second compound 10 µM, first compound 0.3 µM",69.3%
same,"viability, T/C","second compound 10 µM, first compound 0.949 µM",80.9%
same,"viability, T/C","second compound 10 µM, first compound 3 µM",79.9%
